The text below walks through data of patent US4239752A, “O-Demethylseldomycin factor 5 derivatives” (Abbott Laboratories, priority 1979, dated 1980).

The structures appear in SMILES notation. In brackets after ≈: the same amount, converted by molar mass.

The subject of one assay is Escherichia coli R5. Kind of assay: in vitro antibiotic activity, two fold dilution test (MIC). The format is cell-based. Conditions: Streptomycin Assay Agar with yeast extract, pH 7.9, inoculum approx. 1×10^5. The protocol: (§1) The in vitro antibiotic activity is determined by a two fold dilution test using Streptomycin Assay Agar with yeast extract (at pH 7.9). The inoculum of approximately 1×10^5 of the indicated test organism is delivered by a multiple inoculator. The minimum inhibitory concentrations for a representative compound, O-demethyl-3'-deoxyseldomycin factor 5 is set forth in Table II. The minimum inhibitory concentrations are expressed in micrograms per milliliter.

Another assay relates to Eschericha coli ATCC 26. The description is as above. Format: cell-based. Conditions: Streptomycin Assay Agar with yeast extract, pH 7.9, inoculum approx. 1×10^5. The protocol:
as §1

Assay [1] has as its system Staphylococcus aureus ATCC 6538P. The description is as above. Format: cell-based. To be noted: ATCC6538P, Streptomycin Assay Agar with yeast extract, pH 7.9, inoculum approx. 1×10^5. As for the experimental part:
as §1

For another assay, the system named is Escherichia coli R16. The description is as above. Format: cell-based. Conditions: Streptomycin Assay Agar with yeast extract, pH 7.9, inoculum approx. 1×10^5. The protocol: as §1
Assay [2] relates to Pseudomonas aeruginosa BMH#1. Described as above. The format is cell-based. To be noted: Streptomycin Assay Agar with yeast extract, pH 7.9, inoculum approx. 1×10^5. The protocol: as §1
Assay [3] deals with Pseudomonas aeruginosa KY-8512. The assay is described as above. The format is cell-based. Conditions: KY8512, Streptomycin Assay Agar with yeast extract, pH 7.9, inoculum approx. 1×10^5. As for the experimental part:
as §1

Another assay relates to Escherichia coli R3. The assay is described as above. The format is cell-based. To be noted: Streptomycin Assay Agar with yeast extract, pH 7.9, inoculum approx. 1×10^5. The protocol:
as §1

In another assay the test system is Escherichia coli 76-2. The assay is described as above. The format is cell-based. To be noted: 762, Streptomycin Assay Agar with yeast extract, pH 7.9, inoculum approx. 1×10^5. As for the experimental part:
as §1

Assay [4] concerns Klebsiella pneumoniae ATCC 10031. The assay is described as above. Conditions: ATCC10031, Streptomycin Assay Agar with yeast extract, pH 7.9, inoculum approx. 1×10^5. Format: cell-based. The protocol:
as §1

Assay [5] relates to Proteus stuartii ATCC 25825. The description is as above. The format is cell-based. To be noted: Streptomycin Assay Agar with yeast extract, pH 7.9, inoculum approx. 1×10^5. The protocol: as §1
The test system of a further assay is Escherichia coli NR 79. Described as above. Format: cell-based. To be noted: NR79, Streptomycin Assay Agar with yeast extract, pH 7.9, inoculum approx. 1×10^5. As for the experimental part: as §1
The subject of assay [6] is Pseudomonas aeruginosa PST. Described as above. The format is cell-based. To be noted: Streptomycin Assay Agar with yeast extract, pH 7.9, inoculum approx. 1×10^5. The protocol: as §1
Assay [7] concerns Proteus vulgaris ATCC 6897. The assay is described as above. Conditions: ATCC6897, Streptomycin Assay Agar with yeast extract, pH 7.9, inoculum approx. 1×10^5. The format is cell-based. The protocol: as §1
Assay [8] relates to Bacillus subtilis U. of Ill. 10707. The assay is described as above. Format: cell-based. To be noted: Streptomycin Assay Agar with yeast extract, pH 7.9, inoculum approx. 1×10^5. As for the experimental part: as §1
The next assay relates to Escherichia coli R19. The description is as above. Format: cell-based. Conditions: Streptomycin Assay Agar with yeast extract, pH 7.9, inoculum approx. 1×10^5. As for the experimental part:
as §1

In assay [9] the test system is Gram-positive and Gram-negative organisms. Conditions: Staphylococcus aureus, Klebsiella pneumoniae, Escherchia coli and Proteus species; cited from earlier work.

Consider `NC[C@@H]1CC[C@@H](N)[C@@H](O[C@H]2[C@H](O)[C@@H](OC3OCC(O)C(N)C3N)[C@H](N)C[C@@H]2N)O1` (stereo partly shown) [O-demethyl-3'-deoxyseldomycin factor 5, O-Demethyl-3'-deoxyseldomycin factor 5], for which the MIC amounted to 0.8 µg/mL (≈ 1.9 µM) against Escherichia coli R5; 0.16 µg/mL (≈ 0.38 µM) in the assay with Eschericha coli ATCC 26; 0.02 µg/mL (≈ 0.0476 µM) in assay [1]; 0.4 µg/mL (≈ 0.951 µM) in the assay with Escherichia coli R16; 0.63 µg/mL (≈ 1.5 µM) in assay [2]; 1.25 µg/mL (≈ 2.97 µM) in assay [3]. Besides, the MIC against Escherichia coli R3 is 2.5 µg/mL (≈ 5.95 µM); with Escherichia coli 76-2, 0.16 µg/mL (≈ 0.38 µM); in [4] it was 0.04 µg/mL (≈ 0.0951 µM); in assay [5] it was 2.5 µg/mL (≈ 5.95 µM); against Escherichia coli NR 79, 0.16 µg/mL (≈ 0.38 µM); in assay [6], 720 µg/mL (≈ 1710 µM). Besides, the MIC in [7] was 0.31 µg/mL (≈ 0.737 µM); in assay [8] it was 0.01 µg/mL (≈ 0.0238 µM); against Escherichia coli R19, 0.16 µg/mL (≈ 0.38 µM).

Take `COC1COC(O[C@@H]2[C@@H](O)[C@H](O[C@H]3O[C@H](CN)C[C@H](O)[C@H]3N)[C@@H](N)C[C@H]2N)C(N)C1N` (stereo partly shown) [Seldomycin factor 5]: the antibiotic activity result in assay [9] was “highly active, broad-spectrum antibiotic effective against both Gram-positive and Gram-negative organisms”.

A word on the MIC: it is the smallest concentration in the dilution series that meets the test's criterion for growth inhibition.
